The first data set deals with APESV (Apera spica-venti, windgrass). The experiment in a line: greenhouse experiment, pre-emergence herbicidal activity against APESV. The data set is classed as in vivo. The conditions noted are these: pre-emergence method, application rate 0.5 kg/ha; scale from 0 to 100. From the text: The seeds of the test plants were sown separately for each species. For the pre-emergence treatment, the active ingredients, which had been suspended or emulsified in water, were applied directly after sowing by means of finely distributing nozzles. The containers were irrigated gently to promote germination and growth and subsequently covered with transparent plastic hoods until the plants had rooted. This cover caused uniform germination of the test plants, unless this has been impaired by the active ingredients. Depending on the species, the plants were kept at 10-25° C. or 20-35° C. The test period extended over 2 to 4 weeks. During this time, the plants were tended, and their response to the individual treatments was evaluated. Evaluation was carried out using a scale from 0 to 100. 100 means no emergence of the plants, or complete destruction of at least the aerial moieties, and 0 means no damage, or normal course of growth. A good herbicidal activity is given at values of at least 70 and a very good herbicidal activity is given at values of at least 85. The plants used in the greenhouse experiments belonged to the following species: [table]
With `CSC1(Cc2ccccc2)C(=O)N(C)C(=Cc2ccccc2C#N)C(=O)N1C` (stereo not shown) [1a/1b, 2-(5-Benzyl-1,4-dimethyl-5-methylsulfanyl-3,6-dioxopiperazin-2-ylidenemethyl)benzonitrile], the “herbicidal activity against APESV” value is listed as “good to very good”.
With `CN1C(=O)C(Cc2ccccc2)(C(=O)C(F)(F)F)N(C)C(=O)/C1=C/c1ccccc1C#N` (stereo not shown) [Example 4, 2-[5-Trifluoroacetyl-5-benzyl-1,4-dimethyl-3,6-dioxopiperazin-(Z)-2-ylidenemethyl]benzonitrile], the “herbicidal activity against APESV” value is reported as “good to very good”.

The same data set, now with this note: pre-emergence method, application rate 1.0 kg/ha; scale from 0 to 100.
Take `C=CCC1(Cc2ccccc2)C(=O)N(C)/C(=C\c2ccccc2C#N)C(=O)N1C` (stereo not shown) [Example 2, 2-(5-Benzyl-1,4-dimethyl-5-allyl-3,6-dioxo-piperazin-(Z)-2-ylidenemethyl)-benzonitrile]: the “herbicidal activity against APESV” value was “very good (a very good herbicidal activity is given at values of at least 85)”.

Tested on in a further data set: not given
Assay: not given
Conditions: not given
In the case of `CN1C(=O)c2cc3cccnc3n2C(=O)C1(C)Cc1ccccc1` (stereo not shown) [Example 24], the melting point (commonly the temperature, or range, at which the solid turns liquid) was 180 °C.
For `CN1C(=O)C2(CC2c2ccccc2)N(C)C(=O)/C1=C/c1cccnc1C#N` (single isomer, unassigned) [Example 34], the melting point was determined as 224 °C.
The same measure, in the same setting: the result for `CN1C(=O)c2cc3c([N+](=O)[O-])ccc(F)c3n2C(=O)C1(C)Cc1ccccc1` (stereo not shown) [Example 23] reads 170 to 172 °C; that for `CN1C(=O)C2(CC2c2ccccc2)N(C)C(=O)/C1=C/c1ccccc1C#N` (single isomer, unassigned) [Example 32], 190 °C.
Compound `CN1C(=O)C2(CC2c2ccccc2)N(C)C(=O)/C1=C/c1ccccc1[N+](=O)[O-]` (stereo not shown) [Example 30, 6-[1-(2-Nitrophenyl)-meth-(Z)-ylidene]-4,7-dimethyl-1-phenyl-4,7-diazaspiro[2.5]octane-5,8-dione] came in with a melting point of 145 °C.
The compound `CN1C(=O)C2(CC2c2ccccc2)N(C)C(=O)/C1=C/c1cccnc1Cl` (stereo not shown) [Example 33] showed a melting point of 169 °C.
Compound `CN1C(=O)C2(CC2c2ccccc2)N(C)C(=O)/C1=C/c1ccccc1Br` (stereo not shown) [Example 31] returned a melting point of 78 °C.

Source of the values: US20100167933A1, “Piperazine Compounds With Herbicidal Action” (priority 2007, published 2010).
